From US20220323406A1, “METHODS AND COMPOSITIONS FOR DIFFERENTIATING STEM CELLS” (Massachusetts Institute of Technology, priority 2019, published 2022) come the findings set out here.

One assay has as its system ENR+CD organoids. The experiment in a line: Primary screen: ATP (CellTiter-Glo 3D, CTG) cell number/viability, 2.5-D 384-well ENR+CD organoids.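 Note: compounds given at plating and again on day 3 over a 6-day differentiation from ENR+CV stem-cell-enriched precursors, ATP measured on day 6, plate median as control.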
The subject of assay [1] is ENR+CD organoids (ISC to Paneth cell differentiation). Nature of the assay: Primary screen: basal (non-stimulated) lysozyme secretion LYZ.NS, 2.5-D 384-well ENR+CD organoid differentiation. Format: cell-based, mouse. From the text: (§1) High-throughput screening.
The test system is the same in assay [2]. Nature of the assay: Primary screen: CCh-stimulated lysozyme secretion LYZ.S, 2.5-D 384-well ENR+CD organoid differentiation. Particulars: primary screen. Format: cell-based, mouse.
Source text: as §1

Where [3] appears, read: primary screen, standard z score, dose 0.08 uM.
Where [4] appears, read: primary screen, standard z score, dose 0.40 uM.
The mark [5] stands for this setting: primary screen, standard z score, dose 2.00 uM.
[6] abbreviates: primary screen, standard z score, dose 10.00 uM.
[7] abbreviates: primary screen, dose 0.08 uM, standard z score.
[8] abbreviates: primary screen, dose 0.40 uM, standard z score.
[9] abbreviates: primary screen, dose 2.00 uM, standard z score.
Where [10] appears, read: primary screen, dose 10.00 uM, standard z score.
Where [11] appears, read: primary screen; dose 0.08 uM; FC vs plate median.
Setting [12] is: primary screen; dose 0.40 uM; FC vs plate median.
The mark [13] stands for this setting: primary screen; dose 2.00 uM; FC vs plate median.
The mark [14] stands for this setting: primary screen; dose 10.00 uM; FC vs plate median.
Setting [15] is: primary screen, 1st dose row of the treatment (0.08 uM by row order; dose not reprinted).
The mark [16] stands for this setting: primary screen, 2nd dose row of the treatment (0.40 uM by row order; dose not reprinted).
The mark [17] stands for this setting: primary screen, 3rd dose row of the treatment (2.00 uM by row order; dose not reprinted).
Where [18] appears, read: primary screen, 4th dose row of the treatment (10.00 uM by row order; dose not reprinted).
Where [19] appears, read: 1st dose row of the treatment (0.08 uM by row order; dose not reprinted).
The mark [20] stands for this setting: 2nd dose row of the treatment (0.40 uM by row order; dose not reprinted).
[21] abbreviates: 3rd dose row of the treatment (2.00 uM by row order; dose not reprinted).
The mark [22] stands for this setting: 4th dose row of the treatment (10.00 uM by row order; dose not reprinted).

Each structure is given as a SMILES string.

Turning to `C[C@@H]1C(=O)O[C@H]2C[C@@]34[C@H]5C[C@@H](C(C)(C)C)[C@]36[C@@H](OC(=O)[C@@H]6O)O[C@@]4(C(=O)O5)[C@]21O` [Ginkgolide A], the Dose.FC.CTG in the assay on ENR+CD organoids (primary screen, dose 0.08 uM) is listed as 0.005 log2 fold change; with ENR+CD organoids (primary screen, dose 0.40 uM) it was −0.017 log2 fold change; in the assay with ENR+CD organoids (primary screen, dose 2.00 uM), 0.040 log2 fold change; in the assay with ENR+CD organoids (primary screen, dose 10.00 uM) it was −0.012 log2 fold change. In addition, the Z.CTG in the assay on ENR+CD organoids (setting [3]) is 0.011; in the assay with ENR+CD organoids (setting [4]), −0.040; in the assay with ENR+CD organoids (setting [5]), 0.095; with ENR+CD organoids (setting [6]) it was −0.028. Also, the Dose.FC.LYZ.NS in assay [1] (primary screen, dose 0.08 uM) is reported as 0.045 log2 fold change; in assay [1] (primary screen, dose 0.40 uM), 0.025 log2 fold change; in assay [1] (primary screen, dose 2.00 uM), 0.030 log2 fold change; in assay [1] (primary screen, dose 10.00 uM), 0.052 log2 fold change. Besides, the Z.LYZ.NS in assay [1] (setting [3]) is reported as 0.395; in assay [1] (setting [4]), 0.222; in assay [1] (setting [5]), 0.258; in assay [1] (setting [6]), 0.450. Also, the Dose.FC.LYZ.S in assay [2] (dose 0.08 uM) was 0.124 log2 fold change; in assay [2] (dose 0.40 uM) it was 0.161 log2 fold change; in assay [2] (dose 2.00 uM), 0.002 log2 fold change; in assay [2] (dose 10.00 uM), −0.028 log2 fold change.
As for `Cc1cc(C)nc(NS(=O)(=O)c2ccc(NC(=S)NC(=O)COc3ccc(Br)cc3Cl)cc2)n1` [ZCL278], the Dose.FC.CTG in the assay with ENR+CD organoids (primary screen, dose 0.08 uM) is recorded as −0.964 log2 fold change; with ENR+CD organoids (primary screen, dose 0.40 uM) it was 0.018 log2 fold change; in the assay with ENR+CD organoids (primary screen, dose 2.00 uM), −0.228 log2 fold change; in the assay on ENR+CD organoids (primary screen, dose 10.00 uM), −0.104 log2 fold change. For the same molecule, the “Z.CTG (standard z score)” value in the assay on ENR+CD organoids (primary screen, dose 0.08 uM) is −2.303; in the assay on ENR+CD organoids (primary screen, dose 0.40 uM), 0.044; in the assay with ENR+CD organoids (primary screen, dose 2.00 uM), −0.545; in the assay with ENR+CD organoids (primary screen, dose 10.00 uM), −0.247. Also, the Dose.FC.LYZ.NS in assay [1] (primary screen, dose 0.08 uM) was −0.084 log2 fold change; in assay [1] (primary screen, dose 0.40 uM) it was −0.037 log2 fold change; in assay [1] (primary screen, dose 2.00 uM), 0.025 log2 fold change; in assay [1] (primary screen, dose 10.00 uM) it was 0.015 log2 fold change. Besides, the “Z.LYZ.NS (standard z score)” value was −0.729 in assay [1] (primary screen, dose 0.08 uM); −0.325 in assay [1] (primary screen, dose 0.40 uM); 0.218 in assay [1] (primary screen, dose 2.00 uM); 0.130 in assay [1] (primary screen, dose 10.00 uM). In addition, the Dose.FC.LYZ.S in assay [2] (dose 0.08 uM) is −0.107 log2 fold change; in assay [2] (dose 0.40 uM) it was 0.077 log2 fold change; in assay [2] (dose 2.00 uM), −0.079 log2 fold change; in assay [2] (dose 10.00 uM) it was −0.080 log2 fold change.
On to `CCN(CC)CCCC(C)Nc1nc(C)cc(Nc2ccc3nc(C)cc(N)c3c2)n1` (stereo not drawn) [NSC 23766], for which the Z.CTG in the assay with ENR+CD organoids (setting [7]) turned out to be 0.103; in the assay with ENR+CD organoids (setting [8]), 0.406; in the assay with ENR+CD organoids (setting [9]) it was 0.279; in the assay on ENR+CD organoids (setting [10]), 0.774. The Dose.FC.CTG in the assay on ENR+CD organoids (setting [11]) is reported as 0.043 log2 fold change; in the assay with ENR+CD organoids (setting [12]), 0.170 log2 fold change; with ENR+CD organoids (setting [13]), 0.117 log2 fold change; with ENR+CD organoids (setting [14]) it was 0.324 log2 fold change. Also, the Z.LYZ.NS in assay [1] (setting [7]) is on record as 0.701; in assay [1] (setting [8]) it was 0.380; in assay [1] (setting [9]), 0.506; in assay [1] (setting [10]), 0.080. The Dose.FC.LYZ.NS in assay [1] (setting [11]) worked out at 0.081 log2 fold change; in assay [1] (setting [12]), 0.044 log2 fold change; in assay [1] (setting [13]), 0.058 log2 fold change; in assay [1] (setting [14]), 0.009 log2 fold change. Further, the Dose.FC.LYZ.S in assay [2] (dose 0.08 uM, FC vs plate median) is 0.080 log2 fold change; in assay [2] (dose 0.40 uM, FC vs plate median), 0.090 log2 fold change; in assay [2] (dose 2.00 uM, FC vs plate median) it was 0.031 log2 fold change; in assay [2] (dose 10.00 uM, FC vs plate median), 0.030 log2 fold change.
Regarding `CC(C)N(CC[C@H](c1ccccc1)c1cc(CO)ccc1O)C(C)C` [5-hydroxymethyl Tolterodine (PNU 200577, 5-HMT, 5-HM)], the “SSMD.CTG.Rep (strictly standardized mean difference)” value is −0.118 in the assay with ENR+CD organoids (setting [15]), 0.291 in the assay on ENR+CD organoids (setting [16]), 0.114 in the assay with ENR+CD organoids (setting [17]) and 0.061 in the assay on ENR+CD organoids (setting [18]). Further, the Dose.FC.CTG with ENR+CD organoids (primary screen, dose 0.08 uM) is on record as −0.062 log2 fold change; in the assay with ENR+CD organoids (primary screen, dose 0.40 uM), 0.087 log2 fold change; in the assay on ENR+CD organoids (primary screen, dose 2.00 uM) it was 0.034 log2 fold change; in the assay with ENR+CD organoids (primary screen, dose 10.00 uM) it was 0.017 log2 fold change. Further, the “Z.CTG (standard z score)” value in the assay with ENR+CD organoids (primary screen, dose 0.08 uM) is −0.149; in the assay on ENR+CD organoids (primary screen, dose 0.40 uM) it was 0.207; with ENR+CD organoids (primary screen, dose 2.00 uM), 0.082; in the assay on ENR+CD organoids (primary screen, dose 10.00 uM), 0.040. In addition, the “SSMD.LYZ.NS_Rep (strictly standardized mean difference)” value was determined as 0.915 in assay [1] (setting [15]), 0.760 in assay [1] (setting [16]), 0.947 in assay [1] (setting [17]) and 0.223 in assay [1] (setting [18]). Besides, the Dose.FC.LYZ.NS is on record as 0.184 log2 fold change in assay [1] (primary screen, dose 0.08 uM); 0.076 log2 fold change in assay [1] (primary screen, dose 0.40 uM); 0.154 log2 fold change in assay [1] (primary screen, dose 2.00 uM); 0.034 log2 fold change in assay [1] (primary screen, dose 10.00 uM). In addition, the “Z.LYZ.NS (standard z score)” value in assay [1] (primary screen, dose 0.08 uM) was 1.599; in assay [1] (primary screen, dose 0.40 uM), 0.665; in assay [1] (primary screen, dose 2.00 uM), 1.344; in assay [1] (primary screen, dose 10.00 uM), 0.293. In addition, the “SSMD.LYZ.S_Rep (strictly standardized mean difference)” value in assay [2] (setting [19]) was 0.460; in assay [2] (setting [20]) it was 0.266; in assay [2] (setting [21]), 0.174; in assay [2] (setting [22]), −0.042. In addition, the “Z.LYZ.S (standard z score)” value in assay [2] (setting [19]) was 0.417; in assay [2] (setting [20]) it was 0.231; in assay [2] (setting [21]), 0.152; in assay [2] (setting [22]), −0.044. Besides, the Dose.FC.LYZ.S in assay [2] (dose 0.08 uM) is reported as 0.065 log2 fold change; in assay [2] (dose 0.40 uM), 0.036 log2 fold change; in assay [2] (dose 2.00 uM) it was 0.023 log2 fold change; in assay [2] (dose 10.00 uM), −0.007 log2 fold change.
